Results reported in US9566282B2, “Methods for identifying and validating selective anti-cancer stem cell agents” (MCMASTER UNIVERSITY, priority 2011, dated 2017).

Test system: v1O4 and H9 cells
Experiment: p53 staining of v1O4 and H9 cells
Format: cell-based, human
Source text: Variant neoplastic stem cells (v1O4 cells) and normal H9 stem cells were fixed and stained for p53 expression following treatment with selective-activity compounds.

SMILES	activation of the p53 stress response (% cells positive for p53)
OCCN1CCN(CCCN2c3ccccc3Sc3ccc(C(F)(F)F)cc32)CC1 [fluphenazine]	little or no activation of the p53 stress response
CN1CCN(CCCN2c3ccccc3Sc3ccc(C(F)(F)F)cc32)CC1 [trifluoperazine]	little or no activation of the p53 stress response
OCCN1CCN(CCCN2c3ccccc3Sc3ccc(Cl)cc32)CC1 [perphenazine]	little or no activation of the p53 stress response
CN(C)CCCN1c2ccccc2Sc2ccc(C(F)(F)F)cc21 [triflupromazine]	little or no activation of the p53 stress response
CN1CCN(CCCN2c3ccccc3Sc3ccc(Cl)cc32)CC1 [prochlorperazine]	little or no activation of the p53 stress response
